Source: patent US4863898A, “Amino acid chelated compositions for delivery to specific biological tissue sites” (priority 1986, dated 1989)
Read-outs that look alike come from different tables or passages of the source. Each block holds one compound with its values, some of them ahead of it.

Key:
[1] = stability constant of amino acid chelate; type: physicochemical
Description: The determination of stability constants of amino acid chelates is well documented in U.S. Pat. No. 4,167,564 and the means by which amino acid chelates may be formulated to provide optimal stability constants within the required ranges are disclosed in U.S. Pat. Nos. 4,176,564 and 4,172,072.

[2] = radioactive zinc in tissues after injection into the jugular vein (Example IV); type: in vivo; conditions: rats, two hours post injection, group mean
Method: The method of Example III was again utilized except that the manganese was replaced by zinc. […] The same dosage as in Example III was administered. Only six rats were utilized for this experiment, three in each group, and they were sacrificed two hours post injection into the jugular vein. Six tissues, i.e. brain, skeletal muscle, liver, hypothalamus, pituitary and uterus were analyzed for radioactive zinc with the following mean results for each group reported in terms of cc/min/mg of tissue.

[3] = radioactive zinc in male sex tissues after intravenous dosage (Example II); conditions: rats, intravenous 0.06 mg zinc, 24 hours post treatment, group average
Method: Three groups of rats, six in each group, weighing 250 gms±10 gms. were given an intravenous dosage, of 0.06 mg zinc containing 10 microcuries of radioactive zinc.
Each rat was sacrificed 24 hours post treatment and the testes, epididymis, and seminal visicle of each were exposed, excised and a determination was made of the amount of radioactive zinc in each.

[4] = female rats, intravenous 0.06 mg Ca, after two hours
Method: Six female rats, weighing 250 gms.±10 gms., were divided into two groups. All rats were anethetized with 0.15 mls sodium phenobarbital USP. […] To the other three, the same amount of calcium was administered in the form a calcium chloride.
After two hours, all of he rats were sacrificed and the hypothalamus was removed and read for radioactivity.

[5] = parameters: species or system rats; conditions: rat, in vivo
Description: Leucine was used as the ligand and zinc as the metal. Composition A is therefore a mixture, or at best a complex consisting of one mole of leucine (mole weight 131.17) and one more of zinc chloride. […] Composition B consisted of two moles of leucine admixed with one mole of zinc chloride to form a mixture. […] Composition A contained leucine equivalent to 10 microliters of 0.76M. leucine and was adjusted to pH 9 with 20 microliters of 0.05 N NaOH. Composition B contained leucine equivalent to 20 microliters of 0.76M. leucine containing 20 microliters distilled water in lieu of pH adjustment. The pH of this solution was about 3. Composition C contained the same ingredients as Composition B except in chelated form and the pH was adjusted to 9 with 20 microliters of 0.13M Na2 CO3. The procedure of Example lI was fo lowed using three rats in each group. Upon sacrificing, blood was drawn and certain tissues excised to determine the amount of radioactive zinc which had migrated to the blood and tissues two hours post injection.

Compound: zinc-arginine chelate [GROUP I]
stability constant [1]: 10^7

stability constant [1]: 10^7
Compound: NCC(=O)[O-].NCC(=O)[O-].[Zn+2] [GROUP II, zinc-glycine chelate]

Compound: [Cl-].[Cl-].[Zn+2] [Zinc Chloride, zinc chloride]
radioactive zinc in Brain [2]: 5.1 cc/min/mg
radioactive zinc in Hypothalamus [2]: 3.0 cc/min/mg
radioactive zinc in Liver [2]: 94.2 cc/min/mg
radioactive zinc in Pituitary [2]: 17.0 cc/min/mg
radioactive zinc in Skeletal Muscle [2]: 5.2 cc/min/mg
radioactive zinc in Uterus [2]: 14.0 cc/min/mg
radioactive zinc in Epididymis [3]: Negligible
radioactive zinc in Seminal Vesicle [3]: Negligible
radioactive zinc in Testes [3]: Negligible

Compound: [Ca+2].[Cl-].[Cl-] [inorganic calcium, calcium chloride]
radioactivity in hypothalamus, mean corrected counts per minute per milligram of tissue [4]: 67.1±8.4 cc/min/mg

radioactive zinc in Blood [5]: 1.64 cc/min/mg
radioactive zinc in Heart [5]: 6.32 cc/min/mg
radioactive zinc in Kidney [5]: 8.55 cc/min/mg
radioactive zinc in Liver [5]: 8.65 cc/min/mg
radioactive zinc in Muscle [5]: 3.88 cc/min/mg
radioactive zinc, Total of blood and tissues [5]: 31.45 cc/min/mg
Compound: CC(C)C[C@H](N)C(=O)[O-].CC(C)C[C@H](N)C(=O)[O-].[Zn+2] [Comp. C, zinc-leucine amino acid chelate]
